“And” between values parts separate entries of the source, which are not always exact repeats. Equal values may be shown once. Where a name gives a salt, the structure may show the parent alone. Read-outs that look alike come from different tables or passages of the source.
Legend:
human recombinant MAO B = target: T1, human recombinant MAO B (Homo sapiens, UniProt P27338); test: Human recombinant MAO B inhibition (kynuramine fluorescence); format: biochemical; details: mean ±SEM of three independent experiments
T1 construct: purchased Sigma Aldrich, Milan, Italy
T1 sequence (P27338 1-520): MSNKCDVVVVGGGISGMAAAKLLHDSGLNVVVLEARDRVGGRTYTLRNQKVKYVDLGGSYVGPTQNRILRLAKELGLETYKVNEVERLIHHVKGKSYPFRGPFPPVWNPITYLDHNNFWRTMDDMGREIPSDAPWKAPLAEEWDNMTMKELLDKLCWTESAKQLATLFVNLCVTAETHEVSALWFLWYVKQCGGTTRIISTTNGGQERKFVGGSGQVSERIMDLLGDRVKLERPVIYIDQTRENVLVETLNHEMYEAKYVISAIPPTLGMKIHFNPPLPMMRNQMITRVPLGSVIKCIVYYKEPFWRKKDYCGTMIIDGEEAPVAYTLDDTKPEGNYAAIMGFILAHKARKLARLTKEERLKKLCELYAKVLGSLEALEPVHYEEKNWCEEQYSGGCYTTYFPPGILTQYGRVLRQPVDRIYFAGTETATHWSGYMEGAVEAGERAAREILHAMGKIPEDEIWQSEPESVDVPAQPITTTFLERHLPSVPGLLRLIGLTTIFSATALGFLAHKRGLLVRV
Method: (§1) In vitro enzymatic screening toward ChEs was carried out according to the known Ellman’s protocol, by using eeAChE and esBChE as highly homologous and cheaper surrogates for human enzymes. The enzyme inhibition assays on human MAOs were performed by applying already reported methods.
(§2) All enzymes and reagents were purchased from Sigma Aldrich, Milan, Italy. Inhibition of human recombinant MAO A and B was assayed by monitoring the fluorescence of 4-hydroxyquinoline produced from the oxidation of substrate kynuramine, following a previously published method. Acetylcholinesterase from electric eel and butyrylcholinesterase from equine serum were used in the Ellman’s spectrophotometric method as already described. In all cases, a 96-well plate procedure was used with an Infinite M1000 Pro plate reader (Tecan, Cernusco sul Naviglio, Italy). Inhibition values were determined as IC50 values by statistical analysis using Prism (GraphPad Prism version 5.00 for Windows, GraphPad Software, San Diego, CA, USA).

human recombinant MAO A = target: T2, human recombinant MAO A (Homo sapiens, UniProt P21397); test: biochemical; details: for inhibition at 10 µM: read-out: MAO A % inhibition at 10 μM, mean ±SEM of three
T2 construct: purchased Sigma Aldrich, Milan, Italy
T2 sequence (P21397 1-527): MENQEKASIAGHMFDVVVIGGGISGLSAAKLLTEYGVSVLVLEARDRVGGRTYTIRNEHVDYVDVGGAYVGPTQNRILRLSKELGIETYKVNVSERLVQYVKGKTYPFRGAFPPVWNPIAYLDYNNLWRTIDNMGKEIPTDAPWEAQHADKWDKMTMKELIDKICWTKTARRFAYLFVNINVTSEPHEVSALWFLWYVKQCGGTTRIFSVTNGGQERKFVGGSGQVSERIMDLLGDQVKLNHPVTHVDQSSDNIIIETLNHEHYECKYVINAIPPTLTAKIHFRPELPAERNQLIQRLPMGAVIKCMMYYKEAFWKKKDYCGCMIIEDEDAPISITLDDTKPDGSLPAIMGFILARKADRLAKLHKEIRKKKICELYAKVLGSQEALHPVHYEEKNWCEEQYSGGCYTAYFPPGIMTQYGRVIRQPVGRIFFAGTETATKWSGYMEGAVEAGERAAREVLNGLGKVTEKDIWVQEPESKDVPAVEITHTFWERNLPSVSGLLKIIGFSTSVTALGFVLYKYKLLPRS
Method: as §1, §2

[1] = target: T3, butyrylcholinesterase from equine serum (Equus caballus, UniProt P81908); test: biochemical; format: biochemical; details: for inhibition at 10 µM: read-out: BChE % inhibition at 10 μM; for IC50: BChE from equine serum, mean ±SEM of three
T3 construct: butyrylcholinesterase from equine serum; purchased Sigma Aldrich, Milan, Italy; host or cells: equine serum
T3 sequence (P81908 whole entry): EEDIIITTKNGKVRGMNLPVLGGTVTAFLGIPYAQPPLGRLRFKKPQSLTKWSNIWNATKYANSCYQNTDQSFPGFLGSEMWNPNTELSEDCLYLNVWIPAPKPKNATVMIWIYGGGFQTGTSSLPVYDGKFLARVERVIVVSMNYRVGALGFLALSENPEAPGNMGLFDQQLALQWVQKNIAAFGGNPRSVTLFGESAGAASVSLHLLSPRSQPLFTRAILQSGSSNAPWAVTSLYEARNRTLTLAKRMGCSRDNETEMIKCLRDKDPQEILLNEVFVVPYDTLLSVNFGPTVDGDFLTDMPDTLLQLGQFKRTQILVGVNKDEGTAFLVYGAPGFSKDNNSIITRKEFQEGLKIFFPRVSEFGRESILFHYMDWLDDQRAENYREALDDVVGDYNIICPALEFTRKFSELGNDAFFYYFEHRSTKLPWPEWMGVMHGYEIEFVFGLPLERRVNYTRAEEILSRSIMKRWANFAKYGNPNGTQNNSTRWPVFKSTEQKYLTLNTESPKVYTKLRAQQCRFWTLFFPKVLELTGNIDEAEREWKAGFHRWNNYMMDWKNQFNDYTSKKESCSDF
Method: as §1, §2

[2] = target: T4, Acetylcholinesterase from electric eel (Electrophorus electricus, UniProt O42275); test: biochemical; format: biochemical; details: for IC50: AChE from electric eel, mean ±SEM of three; for inhibition at 10 µM: read-out: AChE % inhibition at 10 μM
T4 construct: purchased Sigma Aldrich, Milan, Italy
T4 sequence (O42275 24-633): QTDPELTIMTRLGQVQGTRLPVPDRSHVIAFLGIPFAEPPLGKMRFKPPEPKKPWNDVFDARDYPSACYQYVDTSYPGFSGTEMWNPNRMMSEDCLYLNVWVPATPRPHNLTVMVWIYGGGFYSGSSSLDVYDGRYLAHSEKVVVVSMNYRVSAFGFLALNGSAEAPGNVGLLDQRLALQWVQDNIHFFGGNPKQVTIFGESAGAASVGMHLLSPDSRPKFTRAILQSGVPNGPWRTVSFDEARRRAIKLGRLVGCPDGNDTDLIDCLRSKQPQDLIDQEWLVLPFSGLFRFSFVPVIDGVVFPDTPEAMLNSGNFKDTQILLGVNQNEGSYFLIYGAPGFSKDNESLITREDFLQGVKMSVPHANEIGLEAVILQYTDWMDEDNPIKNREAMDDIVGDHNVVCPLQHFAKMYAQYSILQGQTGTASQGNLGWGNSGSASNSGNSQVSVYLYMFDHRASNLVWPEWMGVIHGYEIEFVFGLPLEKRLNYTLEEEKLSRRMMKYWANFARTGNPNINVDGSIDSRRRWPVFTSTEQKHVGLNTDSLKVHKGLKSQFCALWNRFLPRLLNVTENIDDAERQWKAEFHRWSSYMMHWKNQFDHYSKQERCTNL
Method: as §1, §2

[3] = human recombinant MAO, read-out: MAO B IC50
[4] = human recombinant MAO, mean ±SEM of three independent experiments, read-out: MAO A IC50
[5] = MAO B IC50, human recombinant MAO

SMILES | IC50 (human recombinant MAO B; [3]) | inhibition at 10 µM (human recombinant MAO A; human recombinant MAO) | inhibition at 10 µM [1] | IC50 [2] | IC50 (human recombinant MAO A; [4]) | IC50 [1] | inhibition at 10 µM [2] | IC50 (human recombinant MAO B; [5]) | IC50 (human recombinant MAO A) | BChE/MAO B IC50 ratio ([1]; esBChE vs human MAO B) | AChE/MAO B IC50 ratio ([2]; eeAChE vs human MAO B)
CNCc1cc(=O)oc2cc(OCc3cccc(N(C)C)c3)ccc12 [compound 4, 7-{[3-(Dimethylamino)benzyl]oxy}-4-[(methylamino)methyl]-2H-chromen-2-one] | 0.57 ± 0.05 µM | 49 ± 1% | 34 ± 5% | 6 ± 1.5 µM | – | – | – | – | – | – | –
CNCc1cc(=O)oc2cc(OCc3cc(OC)cc(OC)c3)ccc12 [compound 5, 7-[(3,5-Dimethoxybenzyl)oxy]-4-[(methylamino)methyl]-2H-chromen-2-one] | 0.067 ± 0.005 µM | – | 20 ± 4% | 11 ± 2 µM | 1 ± 0.1 µM | – | – | – | – | – | –
CNCc1cc(=O)oc2cc(OCc3ccc4c(c3)OCO4)ccc12 [compound 6, 7-(1,3-benzodioxol-5-ylmethoxy)-4-[(methylamino)methyl]-2H-chromen-2-one] | 0.0075 ± 0.0001 µM | – | – | 8.5 ± 1.8 µM | 1.2 ± 0.1 µM | 3.4 ± 2.1 µM | – | – | – | – | –
CNCc1cc(=O)oc2cc(OCc3ccccc3)ccc12 [compound 7, 7-(benzyloxy)-4-[(methylamino)methyl]-2H-chromen-2-one] | 0.0021 ± 0.0002 µM | – | 17 ± 1% | – | 0.53 ± 0.01 µM | – | 26 ± 5% | – | – | – | –
CNCc1cc(=O)oc2cc(OCc3cccc(F)c3)ccc12 [compound 9, 7-[(3-fluorobenzyl)oxy]-4-[(methylamino)methyl]-2H-chromen-2-one] | 0.0013 ± 0.0001 µM | – | – | 2.7 ± 1 µM | 1.74 ± 0.04 µM | 4.8 ± 0.3 µM | – | – | – | – | –
CNCc1cc(=O)oc2c(C)c(OCc3cccc(Cl)c3)ccc12 [compound 10, 7-[(3-Chlorobenzyl)oxy]-8-methyl-4-[(methylamino)methyl]-2H-chromen-2-one] | 0.17 ± 0.01 µM | – | 46 ± 2% | 7.2 ± 0.6 µM | 1 ± 0.1 µM | – | – | – | – | – | –
CNCc1cc(=O)oc2cc(OCc3cccc(Cl)c3)c(C)cc12 [compound 11, 7-[(3-Chlorobenzyl)oxy]-6-methyl-4-[(methylamino)methyl]-2H-chromen-2-one hydrochloride] | – | – | 48.1 ± 0.6% | – | – | – | 47.1 ± 0.3% | 0.068 ± 0.002 µM | 0.58 ± 0.03 µM | – | –
CNCc1cc(=O)oc2cc(OCc3cccc(Cl)c3)c(Cl)cc12 [compound 12, 6-Chloro-7-[(3-chlorobenzyl)oxy]-4-[(methylamino)methyl]-2H-chromen-2-one] | 1 ± 0.1 µM | 48 ± 1% | 27 ± 2% | 7.9 ± 0.4 µM | – | – | – | – | – | – | –
O=c1cc(CNCc2ccccc2)c2ccc(OCc3cccc(Cl)c3)cc2o1 [compound 13, 4-[(benzylamino)methyl]-7-[(3-chlorobenzyl)oxy]-2H-chromen-2-one] | 0.103 ± 0.001 µM | 24 ± 3% | – | 17 ± 1 µM | – | 3.4 ± 1.3 µM | – | – | – | – | –
CN(Cc1ccccc1)Cc1cc(=O)oc2cc(OCc3cccc(Cl)c3)ccc12 [compound 14, 4-{[benzyl(methyl)amino]methyl}-7-[(3-chlorobenzyl)oxy]-2H-chromen-2-one] | 0.332 ± 0.026 µM | 28 ± 1% | – | 16 ± 1 µM | – | 6.3 ± 0.3 µM | – | – | – | – | –
O=c1cc(CN2CCCC2)c2ccc(OCc3cccc(Cl)c3)cc2o1 [compound 15, 7-[(3-chlorobenzyl)oxy]-4-(pyrrolidin-1-ylmethyl)-2H-chromen-2-one] | 0.152 ± 0.02 µM | – | 14 ± 2% | 6.6 ± 0.9 µM | 1.12 ± 0.01 µM | – | – | – | – | – | –
CN1CCN(Cc2cc(=O)oc3cc(OCc4cccc(Cl)c4)ccc23)CC1 [compound 16, 7-[(3-Chlorobenzyl)oxy]-4-[(4-methylpiperazin-1-yl)methyl]-2H-chromen-2-one] | 0.27 µM and 0.273 µM | 32 ± 5% | – | 3.1 ± 0.6 µM | – | 2.3 ± 0.9 µM | – | – | – | 9 | 11
O=c1cc(CN2CCOCC2)c2ccc(OCc3cccc(Cl)c3)cc2o1 [compound 17, 7-[(3-chlorobenzyl)oxy]-4-(morpholin-4-ylmethyl)-2H-chromen-2-one] | 0.172 ± 0.001 µM | 32 ± 3% | 46 ± 2% | 6.6 ± 1.1 µM | – | – | – | – | – | – | –
NCc1cc(=O)oc2cc(OCc3cccc(Cl)c3)ccc12 [compound 18, 4-(aminomethyl)-7-[(3-chlorobenzyl)oxy]-2H-chromen-2-one] | 0.066 ± 0.015 µM | 46 ± 3% | 20 ± 7% | 17 ± 4 µM | – | – | – | – | – | – | –
CN(C)Cc1cc(=O)oc2cc(OCc3cccc(Cl)c3)ccc12 [compound 19, 7-[(3-chlorobenzyl)oxy]-4-[(dimethylamino)methyl]-2H-chromen-2-one] | 0.213 ± 0.002 µM | – | – | 8.3 ± 2 µM | 9.2 ± 0.7 µM | 7 ± 1.1 µM | – | – | – | – | –
CCCNCc1cc(=O)oc2cc(OCc3cccc(Cl)c3)ccc12 [compound 20, 7-[(3-chlorobenzyl)oxy]-4-[(propylamino)methyl]-2H-chromen-2-one] | 0.0094 ± 0.0035 µM | 48 ± 1% | – | 4.9 ± 1.4 µM | – | 3.6 ± 0.8 µM | – | – | – | – | –
CCCCNCc1cc(=O)oc2cc(OCc3cccc(Cl)c3)ccc12 [compound 21, 4-[(butylamino)methyl]-7-[(3-chlorobenzyl)oxy]-2H-chromen-2-one] | 0.164 ± 0.002 µM | 41 ± 3% | – | – | – | 4.8 ± 0.3 µM | 39 ± 1% | – | – | – | –
C#CCNCc1cc(=O)oc2cc(OCc3cccc(Cl)c3)ccc12 [compound 22, 7-[(3-Chlorobenzyl)oxy]-4-[(prop-2-yn-1-ylamino)methyl]-2H-chromen-2-one] | 0.0041 ± 0.0011 µM | – | 33 ± 6% | 2.1 ± 0.2 µM | 1.1 ± 0.1 µM | – | – | – | – | – | –
C#CCN(C)Cc1cc(=O)oc2cc(OCc3cccc(Cl)c3)ccc12 [compound 23, 7-[(3-Chlorobenzyl)oxy]-4-{[methyl(prop-2-yn-1-yl)amino]methyl}-2H-chromen-2-one hydrochloride] | – | – | 28 ± 1% | 5.6 ± 0.7 µM | – | – | – | 0.084 ± 0.002 µM | 1.7 ± 0.1 µM | – | –
CNC(=O)CNCc1cc(=O)oc2cc(OCc3cccc(Cl)c3)ccc12 [compound 25, N^2-({7-[(3-Chlorobenzyl)oxy]-2-oxo-2H-chromen-4-yl}methyl)-N^1-methylglycinamide] | 0.0011 ± 0.0003 µM | – | < 5% | 5.3 ± 1.4 µM | 2.6 ± 0.1 µM | – | – | – | – | – | –
CN(C)C(=O)CNCc1cc(=O)oc2cc(OCc3cccc(Cl)c3)ccc12 [compound 26, N^2-({7-[(3-Chlorobenzyl)oxy]-2-oxo-2H-chromen-4-yl}methyl)-N^1,N^1-dimethylglycinamide] | 0.03 ± 0.001 µM | – | 34 ± 2% | 4.3 ± 0.6 µM | 2.5 ± 0.5 µM | – | – | – | – | – | –
COc1cc(COc2ccc3c(CNCC(N)=O)cc(=O)oc3c2)cc(OC)c1 [compound 27, N^2-({7-[(3,5-dimethoxybenzyl)oxy]-2-oxo-2H-chromen-4-yl}methyl)glycinamide] | 0.013 ± 0.001 µM | – | 41 ± 2% | 4.4 ± 0.8 µM | 5.9 ± 0.5 µM | – | – | – | – | – | –
